The test system of this experiment is Elongator complex protein 1 (ELPI, also referred to as IKBKAP). The experiment in a line: IKBKAP-HTRF assay (IKBKAP protein in lysates of FD patient-derived fibroblasts). Conditions: FD patient-derived fibroblasts GM04589, 48 hours, 7-point concentration curve. The format is cell-based, human. Here is the method:
The assay is used for the quantitative determination of Elongator complex protein 1 (ELPI, also referred to as IKBKAP) concentration in cell lysates using the HTRF® (Homogeneous Time-Resolved Fluorescence) technology. IKBKAP is detected in a sandwich HTRF assay by use of an anti-IKAP antibody labeled with a donor and an anti-IKAP antibody labeled with an acceptor.
Cells were thawed and incubated in DMEM-10% FBS for 72 hours. Cells were trypsinized, counted, and re-suspended to a concentration of 50,000 cells/ml in DMEM-10% FBS. A 199 μL aliquot of the cell suspensions were plated at 10,000 cells per well in a 96 well microtiter plate and incubated for 3 to 5 hours. […] Test compounds were serially diluted 3.16-fold in 100% DMSO to generate a 7-point concentration curve. A 1 μL aliquot of 200× compound solution was transferred to cell-containing wells, and cells were incubated for 48 hours in a cell culture incubator (37° C., 5% CO2, 100% relative humidity). Triplicate samples were set up for each compound concentration. After 48 hours, the supernatant was removed from the cells and 50 μL of the 1×LB4 lysis buffer, containing protease inhibitors, was added to the cells and incubated with shaking at room temperature for 1 hour. A 36 μL aliquot of this lysate was subsequently transferred to the 384-well plate containing 4 μL of the antibody solution (1:50 dilution of anti IKAP d2 and anti-IKAP K(9+8) in detection buffer). The 384-well plate was then centrifuged for 1 minute to bring the solutions to the bottom of the plate and incubated overnight at 4° C. Fluorescence for each well of the plate at 665 nm and 620 nm was measured was on the EnVision plate reader (Perkin Elmer). The ΔF for each sample is calculated by:
[formula] wherein Signal is the normalized fluorescence for each sample well and Blank is the average normalized average fluorescence for the Blank control wells.
The maximum fold increase (MFI) in IKBKAP protein abundance for compounds of Formula (I) or a form thereof relative to the vehicle control are provided in Table 1. MFI was calculated by dividing the ΔF value for each sample well by the sample ΔF for the vehicle control wells.
The EC2x for IKBKAP protein expression obtained from the 7-point concentration curve generated for each test compound according to the protocol in Biological Example 1 are also provided in Table 1. The term “EC2x for IKBKAP protein expression” is defined as the concentration of test compound that is effective in producing two times the amount of IKBKAP protein in a FD patient cell compared to the amount produced from the DMSO vehicle control.

Where a name gives a salt, the structure may show the parent alone.

Turning to `CNCCc1[nH]c2nc(Cl)nc(NCc3ccco3)c2c1Br` [Cpd 18, 5-bromo-2-chloro-N-(furan-2-yl)methyl]-6-[2-(methylamino)ethyl]-7H-pyrrolo[2,3-d]pyrimidin-4-amine hydrochloride], the “EC2x for IKBKAP protein expression (concentration producing two times the amount of IKBKAP protein vs DMSO vehicle control)” value was “*** (between >0.02 μM and ≤0.5 μM is indicated by three stars (***))”; the “MFI (maximum fold increase in IKBKAP protein abundance relative to the vehicle control)” value is “**** (between >3.9 and ≤4.9 is indicated by four stars (****))”.
As for `C[C@H](N)Cc1[nH]c2nc(Cl)nc(NCc3ccco3)c2c1Br.Cl` [Cpd 19, 6-[(2S)-2-aminopropyl]-5-bromo-2-chloro-N-[(furan-2-yl)methyl]-7H-pyrrolo[2,3-d]pyrimidin-4-amine hydrochloride], the “EC2x for IKBKAP protein expression (concentration producing two times the amount of IKBKAP protein vs DMSO vehicle control)” value was “**** (between >0.005 μM and ≤0.02 μM is indicated by four stars (****))”; the “MFI (maximum fold increase in IKBKAP protein abundance relative to the vehicle control)” value is “**** (between >3.9 and ≤4.9 is indicated by four stars (****))”.
For the compound `C[C@H](N)Cc1cc2c(NCc3ccncc3)nc(Cl)nc2[nH]1` [Cpd 20, 6-[(2S)-2-aminopropyl]-2-chloro-N-[(pyridin-4-yl)methyl]-7H-pyrrolo[2,3-d]pyrimidin-4-amine], the “EC2x for IKBKAP protein expression (concentration producing two times the amount of IKBKAP protein vs DMSO vehicle control)” value was “*** (between >0.02 μM and ≤0.5 μM is indicated by three stars (***))”; the “MFI (maximum fold increase in IKBKAP protein abundance relative to the vehicle control)” value was “***** (>4.9 is indicated by five stars (*****))”.
Take `CC[C@H](N)Cc1[nH]c2nc(Cl)nc(NCc3ccco3)c2c1Cl.Cl` [Cpd 21, 6-[(2S)-2-aminobutyl]-2,5-dichloro-N-[(furan-2-yl)methyl]-7H-pyrrolo[2,3-d]pyrimidin-4-amine hydrochloride]: the “EC2x for IKBKAP protein expression (concentration producing two times the amount of IKBKAP protein vs DMSO vehicle control)” value is “**** (between >0.005 μM and ≤0.02 μM is indicated by four stars (****))”; the “MFI (maximum fold increase in IKBKAP protein abundance relative to the vehicle control)” value was “**** (between >3.9 and ≤4.9 is indicated by four stars (****))”.
Consider `C[C@H](N)Cc1cc2c(NCc3nccs3)nc(Cl)nc2[nH]1.Cl` [Cpd 22, 6-[(2S)-2-aminopropyl]-2-chloro-N-[(1,3-thiazol-2-yl)methyl]-7H-pyrrolo[2,3-d]pyrimidin-4-amine hydrochloride], for which the “EC2x for IKBKAP protein expression (concentration producing two times the amount of IKBKAP protein vs DMSO vehicle control)” value was “**** (between >0.005 μM and ≤0.02 μM is indicated by four stars (****))”; the “MFI (maximum fold increase in IKBKAP protein abundance relative to the vehicle control)” value was “***** (>4.9 is indicated by five stars (*****))”.
`C[C@H](N)Cc1c(Cl)c2c(NCc3ccco3)nc(Cl)nc2n1C.Cl` [Cpd 23, 6-[(2S)-2-aminopropyl]-2,5-dichloro-N-[(furan-2-yl)methyl]-7-methyl-7H-pyrrolo[2,3-d]pyrimidin-4-amine hydrochloride]: the “EC2x for IKBKAP protein expression (concentration producing two times the amount of IKBKAP protein vs DMSO vehicle control)” value is “**** (between >0.005 μM and ≤0.02 μM is indicated by four stars (****))”; the “MFI (maximum fold increase in IKBKAP protein abundance relative to the vehicle control)” value was “***** (>4.9 is indicated by five stars (*****))”.
On to `C[C@H](N)Cc1c(F)c2c(NCc3ccco3)nc(Cl)nc2n1C.Cl` [Cpd 24, 6-[(2S)-2-aminopropyl]-2-chloro-5-fluoro-N-[(furan-2-yl)methyl]-7-methyl-7H-pyrrolo[2,3-d]pyrimidin-4-amine hydrochloride], for which the “EC2x for IKBKAP protein expression (concentration producing two times the amount of IKBKAP protein vs DMSO vehicle control)” value was “**** (between >0.005 μM and ≤0.02 μM is indicated by four stars (****))”; the “MFI (maximum fold increase in IKBKAP protein abundance relative to the vehicle control)” value is listed as “***** (>4.9 is indicated by five stars (*****))”.
For `C[C@H](N)Cc1cc2c(NCc3cccs3)nc(Cl)nc2[nH]1.Cl` [Cpd 25, 6-[(2S)-2-aminopropyl]-2-chloro-N-[(thiophen-2-yl)methyl]-7H-pyrrolo[2,3-d]pyrimidin-4-amine hydrochloride], the “EC2x for IKBKAP protein expression (concentration producing two times the amount of IKBKAP protein vs DMSO vehicle control)” value was “**** (between >0.005 μM and ≤0.02 μM is indicated by four stars (****))”; the “MFI (maximum fold increase in IKBKAP protein abundance relative to the vehicle control)” value is reported as “***** (>4.9 is indicated by five stars (*****))”.
Consider `CC[C@H](N)Cc1cc2c(NCc3ccco3)nc(Cl)nc2[nH]1` [Cpd 26, 6-[(2S)-2-aminobutyl]-2-chloro-N-[(furan-2-yl)methyl]-7H-pyrrolo[2,3-d]pyrimidin-4-amine], for which the “EC2x for IKBKAP protein expression (concentration producing two times the amount of IKBKAP protein vs DMSO vehicle control)” value is “**** (between >0.005 μM and ≤0.02 μM is indicated by four stars (****))”; the “MFI (maximum fold increase in IKBKAP protein abundance relative to the vehicle control)” value is “**** (between >3.9 and ≤4.9 is indicated by four stars (****))”.
In the case of `C[C@H](N)Cc1cc2c(NCc3ncco3)nc(Cl)nc2[nH]1.Cl` [Cpd 27, 6-[(2S)-2-aminopropyl]-2-chloro-N-[(1,3-oxazol-2-yl)methyl]-7H-pyrrolo[2,3-d]pyrimidin-4-amine hydrochloride], the “EC2x for IKBKAP protein expression (concentration producing two times the amount of IKBKAP protein vs DMSO vehicle control)” value is “*** (between >0.02 μM and ≤0.5 μM is indicated by three stars (***))”; the “MFI (maximum fold increase in IKBKAP protein abundance relative to the vehicle control)” value is “***** (>4.9 is indicated by five stars (*****))”.
Turning to `CCCCc1c(C[C@H](C)N)[nH]c2nc(Cl)nc(NCc3ccco3)c12.Cl` [Cpd 28, 6-[(2S)-2-aminopropyl]-5-butyl-2-chloro-N-[(furan-2-yl)methyl]-7H-pyrrolo[2,3-d]pyrimidin-4-amine hydrochloride], the “EC2x for IKBKAP protein expression (concentration producing two times the amount of IKBKAP protein vs DMSO vehicle control)” value was “* (An EC2x>1 μM is indicated by one star (*))” and the “MFI (maximum fold increase in IKBKAP protein abundance relative to the vehicle control)” value is recorded as “* (An MFI≤1.9 is indicated by one star (*))”.
Consider `CC(C)(C)[C@H](N)Cc1cc2c(NCc3ccco3)nc(Cl)nc2[nH]1.Cl` [Cpd 29, 6-[(2R)-2-amino-3,3-dimethylbutyl]-2-chloro-N-[(furan-2-yl)methyl]-7H-pyrrolo[2,3-d]pyrimidin-4-amine hydrochloride], for which the “EC2x for IKBKAP protein expression (concentration producing two times the amount of IKBKAP protein vs DMSO vehicle control)” value is “*** (between >0.02 μM and ≤0.5 μM is indicated by three stars (***))”; the “MFI (maximum fold increase in IKBKAP protein abundance relative to the vehicle control)” value is “**** (between >3.9 and ≤4.9 is indicated by four stars (****))”.
For `C[C@H](N)Cc1cc2c(NCc3ccoc3)nc(Cl)nc2[nH]1.Cl` [Cpd 30, 6-[(2S)-2-aminopropyl]-2-chloro-N-[(furan-3-yl)methyl]-7H-pyrrolo[2,3-d]pyrimidin-4-amine hydrochloride], the “EC2x for IKBKAP protein expression (concentration producing two times the amount of IKBKAP protein vs DMSO vehicle control)” value was “*** (between >0.02 μM and ≤0.5 μM is indicated by three stars (***))”; the “MFI (maximum fold increase in IKBKAP protein abundance relative to the vehicle control)” value was “***** (>4.9 is indicated by five stars (*****))”.
As to `C[C@H](N)Cc1cc2c(NCc3ccncc3F)nc(Cl)nc2[nH]1.Cl.Cl` [Cpd 31, 6-[(2S)-2-aminopropyl]-2-chloro-N-[(3-fluoropyridin-4-yl)methyl]-7H-pyrrolo[2,3-d]pyrimidin-4-amine dihydrochloride], the “EC2x for IKBKAP protein expression (concentration producing two times the amount of IKBKAP protein vs DMSO vehicle control)” value was “**** (between >0.005 μM and ≤0.02 μM is indicated by four stars (****))”; the “MFI (maximum fold increase in IKBKAP protein abundance relative to the vehicle control)” value was “***** (>4.9 is indicated by five stars (*****))”.
In the case of `CC[C@H](C)[C@H](N)Cc1cc2c(NCc3ccco3)nc(Cl)nc2[nH]1.Cl` [Cpd 32, 6-[(2R,3S)-2-amino-3-methylpentyl]-2-chloro-N-[(furan-2-yl)methyl]-7H-pyrrolo[2,3-d]pyrimidin-4-amine hydrochloride], the “EC2x for IKBKAP protein expression (concentration producing two times the amount of IKBKAP protein vs DMSO vehicle control)” value was “**** (between >0.005 μM and ≤0.02 μM is indicated by four stars (****))”; the “MFI (maximum fold increase in IKBKAP protein abundance relative to the vehicle control)” value is on record as “***** (>4.9 is indicated by five stars (*****))”.
With `Cc1c(C[C@H](C)N)[nH]c2nc(Cl)nc(NCc3ccco3)c12.Cl` [Cpd 33, 6-[(2S)-2-aminopropyl]-2-chloro-N-[(furan-2-yl)methyl]-5-methyl-7H-pyrrolo[2,3-d]pyrimidin-4-amine hydrochloride], the “EC2x for IKBKAP protein expression (concentration producing two times the amount of IKBKAP protein vs DMSO vehicle control)” value is “***** (≤0.005 μM is indicated by five stars (*****))” and the “MFI (maximum fold increase in IKBKAP protein abundance relative to the vehicle control)” value was “***** (>4.9 is indicated by five stars (*****))”.
